Test results: article PMC11488110 (Theranostics, 2024)

Legend:
[1] = Metabolic stability assay in liver microsomes; assay type: in vitro ADME, mouse; conditions: 1 μM, 30 min
Protocol: The metabolic stability assay was performed by incubation of human and selected animal liver microsomes (dog, rat, and mouse) with the test compound at a final concentration of 1 μM, in the presence of 0.5 mg/ml microsomal protein and NADPH-regeneration system, in a total volume of 100 μL phosphate buffer 100 mM (pH 7.4) at 37 °C. The incubation was started by introducing the NADPH-regeneration system and terminated by adding 40 μL of ice-cold acetonitrile at 0- and 30 min. Precipitated proteins were removed by centrifugation at 10,000 g and 4 °C for 5 min. Aliquots of the supernatant were injected onto an LC-MS/MS system. Incubations terminated prior to addition of the NADPH-regeneration system (time point, 0 min) were used as standards, defined as 100%. Percent of the parent compound remaining was calculated by comparing peak areas.
(§1) Ta b l e S2 . CYP inhibition, microsomal stability, and hERG in hibition of 5a .
(§2) CYP inhibitiona Microsomal stabilityb
(§3) ( % of c ont rol ac ti vit y) (% of remaining compound) hERG inhibitionc (IC50, μ M) […]
aCytochrome P450 (CYP450) enzyme activity was measured by incubating CYP450 enzyme isotype-specific substrates and liver microsomes in the presence of the test compound (10 μM) for 15 min. […]

[2] = target: T1, hERG channel (Homo sapiens, UniProt Q12809); assay: biochemical; conditions: fluorescence polarization binding assay
T1 construct: purchased Invitrogen PV5365
T1 sequence (Q12809 whole entry): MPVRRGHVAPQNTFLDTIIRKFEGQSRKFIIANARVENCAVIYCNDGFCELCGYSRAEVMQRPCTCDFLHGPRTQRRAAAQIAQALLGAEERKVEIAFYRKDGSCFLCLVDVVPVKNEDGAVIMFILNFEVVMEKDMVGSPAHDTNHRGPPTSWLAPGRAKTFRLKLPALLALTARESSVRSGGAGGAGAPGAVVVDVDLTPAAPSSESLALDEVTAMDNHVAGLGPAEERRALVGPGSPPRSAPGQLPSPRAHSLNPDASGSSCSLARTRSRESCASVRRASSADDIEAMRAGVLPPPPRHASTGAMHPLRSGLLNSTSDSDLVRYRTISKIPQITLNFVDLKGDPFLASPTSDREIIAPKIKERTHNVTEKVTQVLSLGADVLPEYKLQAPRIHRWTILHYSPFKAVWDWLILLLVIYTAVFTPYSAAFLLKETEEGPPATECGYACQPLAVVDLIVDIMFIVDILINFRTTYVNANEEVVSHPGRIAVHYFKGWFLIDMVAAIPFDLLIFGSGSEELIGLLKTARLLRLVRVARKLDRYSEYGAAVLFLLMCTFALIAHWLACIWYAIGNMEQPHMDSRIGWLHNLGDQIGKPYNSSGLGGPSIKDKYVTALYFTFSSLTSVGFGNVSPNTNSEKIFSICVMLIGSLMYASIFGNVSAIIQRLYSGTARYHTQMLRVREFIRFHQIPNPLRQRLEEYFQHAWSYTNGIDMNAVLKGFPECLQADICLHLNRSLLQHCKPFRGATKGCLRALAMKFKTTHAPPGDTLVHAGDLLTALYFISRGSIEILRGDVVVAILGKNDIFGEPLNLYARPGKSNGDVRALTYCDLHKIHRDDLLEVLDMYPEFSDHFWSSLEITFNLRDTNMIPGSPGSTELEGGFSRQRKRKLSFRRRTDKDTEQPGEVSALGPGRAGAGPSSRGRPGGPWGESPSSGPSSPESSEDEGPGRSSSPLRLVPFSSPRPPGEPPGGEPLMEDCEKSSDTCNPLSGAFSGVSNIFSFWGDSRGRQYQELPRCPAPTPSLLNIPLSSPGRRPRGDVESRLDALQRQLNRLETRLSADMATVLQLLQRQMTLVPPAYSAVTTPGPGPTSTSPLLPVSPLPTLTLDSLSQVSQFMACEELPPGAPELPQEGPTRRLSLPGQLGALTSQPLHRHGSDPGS
Protocol: An hERG channel binding assay was performed using the Predictor hERG Fluorescence Polarization Assay Kit (PV5365, Invitrogen). […] Fluorescence intensity (excitation at 530 nm, emission at 590 nm) was measured using a multi-mode microplate reader Synergy Neo (Biotek). […]
as §1, §2, §3
aCytochrome P450 (CYP450) enzyme activity was measured by incubating CYP450 enzyme isotype-specific substrates and liver microsomes in the presence of the test compound (10 μM) for 15 min. Data are expressed as percent of CYP enzyme activity relative to that of t he v ehicle-treated control. bThe test compound was incubated with microsomes for 30 min and the percentage of the remaining compound was measured via liquid chromatography- tandem mass spectrometry (LC-MS/MS). cHuman Ether-à -go -go -related gene (hERG) channel binding assay was performed using a predictor hERG fluorescence polarization assay (Invitrogen); IC50 values were calculated with non-linear regression fit with four parameters. a- cThe results of these three assays were obtained through the in vitro ADME/Tox study service of KMEDIhub, a contract research organization (CRO). The reported measurements are the mean of […]

[3] = tested on: BV-2 microglial cells; assay: LPS-induced inflammatory responses in BV-2 microglia; assay type: cell-based, mouse
[4] = tested on: primary mouse astrocytes; assay: Cytotoxicity assay (EZ-Cytox) in primary mouse astrocytes; assay type: cell-based; conditions: up to 30 μM, 24 h
[5] = tested on: SH-SY5Y cells; assay: BACE1 expression (western blot) in SH-SY5Y cells; assay type: cell-based, human; conditions: 24 h
Protocol: For the in vitro co-transfection assay, CV-1 monkey kidney cells were cultured in Dulbecco's modified Eagle's medium (DMEM) supplemented with 10% resin-charcoal-stripped fetal bovine serum (FBS), 100 U/mL penicillin, and 100 µg/mL streptomycin. To investigate the anti-inflammatory effects of 5a, BV-2 microglial cells were cultured in RPMI 1640 (Biowest) supplemented with 10% heat-inactivated FBS (Biowest), 2.05 mM L-glutamine (Gibco), and 100 U/mL penicillin/streptomycin (Gibco). Primary mouse astrocytes were isolated from postnatal day 1 C57BL/6N mouse pups. The cerebral cortices collected with the meninges removed were triturated by gentle pipetting and centrifuged. Primary astrocytes were resuspended and cultured in DMEM supplemented with 10% heat-inactivated FBS (Biowest), 10% heat-inactivated horse serum (Gibco), and 100 U/mL penicillin/streptomycin (Gibco). […]
Total proteins were extracted from cells or mouse brain tissues using radioimmunoprecipitation assay (RIPA) buffer (Sigma-Aldrich) containing a protease and phosphatase inhibitor cocktail (Roche Diagnostics). […] Protein concentrations were determined using Pierce® BCA Protein Assay Kit (Thermo Fisher Scientific). […] The western blot bands were analyzed using ImageJ software (NIH) and β-Actin or glyceraldehyde 3-phosphate dehydrogenase (GAPDH) were used as a loading control. […]

[6] = Pharmacokinetics in Sprague-Dawley rats; conditions: rat, plasma

Question: For `Cc1cc(SCc2[se]c(-c3ccc(C(F)(F)F)cc3)nc2C)ccc1OCC(=O)O` [Compound 5a, {2-Methyl-4-[4-methyl-2-(4-trifluoromethyl-phenyl)-selenazol-5-yl-methylsulfanyl]-phenoxy}-acetic acid], which “Microsomal stability, Mouse (% of remaining compound)” value [1] is on record?
Answer: 76.1 % of remaining compound

Question: And the “hERG inhibition (IC50)” value [2]?
Answer: low inhibitory effects

Question: What about the IC50 ([2]; read-out: hERG inhibition (IC50)) of the same compound?
Answer: 9 µM

Question: What about the “LPS-induced mRNA and protein levels of iNOS, TNF-α and IL-6” value ([3]; BV-2, LPS 0.2 μg/mL) of the same compound?
Answer: reduced the LPS-induced increases

Question: And the “LPS-induced NO production (nitrite)” value ([3]; pretreatment 3 h, LPS 0.2 μg/mL 24 h)?
Answer: suppressed

Question: What about the “LPS-induced phosphorylation of NF-κB p65” value ([3]; pretreatment 6 h, LPS 1 h) of the same compound?
Answer: prevented the increase

Question: What about the “Cytotoxicity in primary astrocytes” value [4] of the same compound?
Answer: no cytotoxicity

Question: And the “BACE1 expression in SH-SY5Y cells” value [5]?
Answer: dose-dependently reduced the expression of BACE1

Question: And the AUC ([6]; iv, 5 mg/kg)?
Answer: 7350 ng·h/mL

Question: What about the Vd ([6]; iv, 5 mg/kg) of the same compound?
Answer: 2.3 ± 0.1 L/kg

Question: What about the clearance ([6]; iv, 5 mg/kg) of the same compound?
Answer: 10.2 mL/min/kg

Question: And the half-life ([6]; iv, 5 mg/kg)?
Answer: 2.3 ± 0.6 h

Question: And the bioavailability ([6]; oral, 10 mg/kg)?
Answer: 90.7%

Question: And the AUC ([6]; po, 10 mg/kg)?
Answer: 13300 ng·h/mL

Question: And the Cmax ([6]; po, 10 mg/kg)?
Answer: 2740 ng/mL
